What all share (assay): URAT1 uric acid transport activity assay
Format in all cases: cell-based

Assay [1] concerns the target T1, r-A21T rURAT1 point mutant (Rattus norvegicus, UniProt Q3ZAV1, A21T).
T1 construct: expressed in transfected cells; host or cells: HEK-293T
T1 sequence (Q3ZAV1 1-553 A21T): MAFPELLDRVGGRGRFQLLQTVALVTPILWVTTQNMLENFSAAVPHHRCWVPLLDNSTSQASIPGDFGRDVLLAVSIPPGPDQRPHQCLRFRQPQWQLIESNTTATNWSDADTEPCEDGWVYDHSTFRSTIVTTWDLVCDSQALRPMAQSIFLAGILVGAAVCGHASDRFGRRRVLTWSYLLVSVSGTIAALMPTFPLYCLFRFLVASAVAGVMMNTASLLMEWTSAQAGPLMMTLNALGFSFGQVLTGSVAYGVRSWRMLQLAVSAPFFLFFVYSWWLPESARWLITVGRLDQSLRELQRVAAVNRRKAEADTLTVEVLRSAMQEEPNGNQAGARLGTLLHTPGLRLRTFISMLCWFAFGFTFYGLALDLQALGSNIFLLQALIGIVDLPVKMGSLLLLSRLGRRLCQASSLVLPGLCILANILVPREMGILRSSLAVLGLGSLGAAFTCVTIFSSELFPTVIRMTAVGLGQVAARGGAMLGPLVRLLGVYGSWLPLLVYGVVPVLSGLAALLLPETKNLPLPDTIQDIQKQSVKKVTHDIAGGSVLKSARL
The method in brief: (§1)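 Rat URAT1 point or double mutants in pCMV6/neo were transiently transfected into cells and assayed the next day. Compounds were preincubated for 5 minutes, then 100 μM 14C-uric acid uptake was measured over 10 minutes in triplicate. IC50 came from four-parameter variable-slope nonlinear regression.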

Assay [2] deals with T2, r-N35S/Y365F rURAT1 double point mutant (Rattus norvegicus, UniProt Q3ZAV1, N35S/Y365F).
T2 construct: expressed in transfected cells; host or cells: HEK-293T
T2 sequence (Q3ZAV1 1-553 N35S/Y365F): T1 sequence (Q3ZAV1 1-553 A21T) with T21A, N35S, Y365F
In outline: as §1

Assay [3] concerns the target T3, r-T32C rURAT1 point mutant (Rattus norvegicus, UniProt Q3ZAV1, T32C).
T3 sequence (Q3ZAV1 1-553 T32C): T1 sequence (Q3ZAV1 1-553 A21T) with T21A, T32C
In outline: as §1

[4] abbreviates: r-N35S/Y365F, MES pH 5.5, 100 μM 14C-uric acid, read-out: IC50 (uric acid transport).

The IC50 is the midpoint of a concentration-inhibition curve.

Residue numbers refer to the chain shown, from its start. Like-named read-outs stand apart in the source and are kept apart here.

As for `CCc1oc2ccccc2c1C(=O)c1cc(Br)c(O)c(Br)c1` [benzbromarone], the half-inhibitory concentration (IC50) in assay [1] came to 22 ± 3.6 µM; in assay [2] it was 2.2 ± 0.29 µM; in assay [3] it was 24 ± 4 µM.
With `O=C(O)CSc1nnc(Br)n1-c1ccc(C2CC2)c2ccccc12` [lesinurad, 2-((5-bromo-4-(4-cyclopropylnaphthalen-1-yl)-4H-1,2,4-triazol-3-yl)thio)acetic acid], the concentration for half-maximal inhibition (IC50) was 71 ± 5.9 µM in assay [1] (r-A21T, MES pH 5.5, 100 μM 14C-uric acid, read-out: IC50 (uric acid transport)); 1.6 ± 0.03 µM in assay [2] (setting [4]); 73 ± 5.9 µM in assay [3] (r-T32C, MES pH 5.5, 100 μM 14C-uric acid, read-out: IC50 (uric acid transport)).
Take `O=C1C(CC[S+]([O-])c2ccccc2)C(=O)N(c2ccccc2)N1c1ccccc1` (centres unmarked) [sulfinpyrazone]: the IC50 in assay [1] (r-A21T, HEPES pH 7.3, 100 μM 14C-uric acid, read-out: IC50 (uric acid transport)) is 471 ± 81 µM; in assay [2] (r-N35S/Y365F, HEPES pH 7.3, 100 μM 14C-uric acid, read-out: IC50 (uric acid transport)) it was 142 ± 15 µM; in assay [3] (r-T32C, HEPES pH 7.3, 100 μM 14C-uric acid, read-out: IC50 (uric acid transport)), 691 ± 98 µM.
Turning to `O=c1[nH]c(=O)c2[nH]c(=O)[nH]c2[nH]1` [uric acid], the “fold increased affinity of r-N35S/Y365F compared to rURAT1” value in assay [2] (from IC50 values) is on record as 5.4 fold. For the same molecule, the half-maximal inhibitory concentration (IC50) in assay [2] (setting [4]) came to 484 µM.
